Key:
P. aeruginosa PDO300 = assay: Effect of GM-CSF on planktonic PDO300 cells (total viable cells and persisters) at exponential phase, alone and with antibiotic; assay type: cell-based, Pseudomonas aeruginosa; conditions: for % change in avg. CFU/mL by GM-CSF (compared to GM-CSF free control) With 50 μg/mL Cip / % change in avg. CFU/mL by GM-CSF (compared to GM-CSF free control) With 50 μg/mL Tet / % change in avg. CFU/mL by GM-CSF (compared to GM-CSF free control) With 50 μg/mL Tob / % change in avg. CFU/mL by GM-CSF (compared to GM-CSF free control) With 200 μg/mL Gen: PDO300 exponential phase, 0.17 pM GM-CSF; for % change in avg. CFU/ml after adding factor + CIP / % change in avg. CFU/ml after adding factor + TET / % change in avg. CFU/ml after adding factor + TOB / % change in avg. CFU/ml after adding factor + GEN / average CFU/ml of persisters reduced by / average CFU/ml of total viable cells reduced by: planktonic PDO300; for % change in avg. CFU/ml after adding factor + CIP: 2.43 pg/mL GM-CSF with 50 μg/mL ciprofloxacin; for % change in avg. CFU/ml after adding factor + TET: 2.43 pg/mL GM-CSF with 50 μg/mL tetracycline; for % change in avg. CFU/ml after adding factor + TOB: 2.43 pg/mL GM-CSF with 50 μg/mL tobramycin; for % change in avg. CFU/ml after adding factor + GEN: 2.43 pg/mL GM-CSF with 200 μg/ml gentamicin; for average CFU/ml of persisters reduced by / average CFU/ml of total viable cells reduced by: reduction
Procedure: This Example describes the treatment of planktonic P. aeruginosa PAO1, PDO300 and Escherichia coli K12, with GM-CSF introduced directly or together with an antibiotic to test the synergy. All experiments were conducted with cells harvested from exponential phase subcultures with an optical density at 600 nm (OD600) of 0.3 to 0.4.
In brief, after preparing an overnight culture of the tested strain in 25 ml LB medium, a subculture was prepared with an OD600 of 0.01 in 50 mL LB medium. The subculture was incubated at 37° C. with shaking at 200 rpm for 3-4 h, till an OD600 of 0.3 to 0.4 was reached. The exponential phase subculture was then divided equally into two centrifuge tubes, each containing 25 mL of the subculture. The subcultures were washed twice with 0.85% NaCl buffer by vortexing and then centrifuging at 4° C., 8000 rpm for 10 min each time. The washed subcultures/cells were resuspended in 25 mL 0.85% NaCl buffer and vortexed gently for 1 min. One of the tubes of subculture was selected for isolation of persisters by adding 200 μg/mL ciprofloxacin (for PAO1 and PDO300 strains) or 100 μg/mL ampicillin (for E. coli K12 strain). After adding the antibiotic for persister isolation, the subculture was incubated at 37° C., shaking at 200 rpm for 3.5 h.
To test the effects of GM-CSF on viability of persisters, the second tube was used to quantify the total number of viable cells and 1 mL of the washed persister cells was divided into 6 microcentrifuge tubes; 3 were control and the other 3 were GM-CSF treatment samples. In the treatment samples, GM-CSF was added to a concentration of 2.43 pg/mL (or 0.17 pM), the same as found in healthy human bodies. The control samples were supplemented with the same concentration of PBS and BSA as present in 2.43 pg/mL (or 0.17 pM) GM-CSF samples.
After incubating at 37° C. for 1 h with shaking at 200 rpm, the samples were plated on LB agar plates (15 g/L bacto agar) using drop plate method. The agar plates were then incubated for 24 h at 37° C. to count the total number of persister cells and understand the effect of 0.17 pM GM-CSF on the viability of persister cells.
To test the synergy with antibiotics, the above samples were then incubated at 37° C. for 3.5 h with shaking at 200 rpm after adding the selected antibiotic. After 3.5 h, the CFU of samples was quantified in the same way to understand if there is any synergy between GM-CSF and antibiotic. Similar treatments were performed on the total population in exponential phase as well. Apart from exponential phase, the synergistic effects of GM-CSF with antibiotics on total viable cells and persisters were also evaluated at stationary phase but PBS buffer (pH=7.4) was used in the experiments instead of 0.85% NaCl solution. Moreover, the 1 h and 3.5 h treatments were performed as co-treatments.

[1] = test system: whole cells of P. aeruginosa; assay: GM-CSF binding assay to bacterial whole cells (slot blot immunoblotting); parameters: species or system Pseudomonas aeruginosa; conditions: PBS, room temperature, 2 h, anti-rhGM-CSF immunoblot (FIG. 21)
Procedure: This Example describes experiments conducted to determine the capability of GM-CSF to bind to whole cells of P. aeruginosa and E. coli. In brief, bacteria harvested at stationary phases of growth were washed with PBS and adjusted to OD600 of 0.4 with PBS to ensure that an equal amount of cells was used for all GF-CSF binding tests. Suspensions of bacteria (10^6 CFU) were then incubated with and without different amount of recombinant human GM-CSF (rhGM-CSF, R&D systems) in a 40 μL volume at room temperature for 2 hours. After incubation, the cell suspension was centrifuged to separate supernatant (comprising buffer and unbound GM-CSF) and pellet (comprising cell and bound GM-CSF, if any), followed by the addition of 10 mM EDTA and boiling for 30 minutes to inactivate bacterial alkaline phosphatase activity. As control, PBS buffer with GM-CSF were processed in the similar manner. All the samples were then applied to Slot Blot (BioRad) for immunoblotting experiments. Anti-rhGMCSF developed in mice (Human GM-CSF MAb, Mouse IgG1, R&D system) was used as first antibody; Alkaline Phosphatase conjugated with Anti-mouse IgG was used to detect the binding of GM-CSF with BCIP/NBT (Promega) as substrates.

[2] = test system: membrane fractions of P. aeruginosa; assay: GM-CSF binding to non-denatured cellular fractions (non-denatured PAGE, Western blotting); parameters: species or system Pseudomonas aeruginosa; conditions: P. aeruginosa fractions incubated with GM-CSF, Western blotting (FIG. 22)
Procedure: Cell fractionation was done as described by George et al. (1986) with some modification. Briefly, cell pellets from stationary phase PAO1 were suspended in 1 ml of PBS buffer (pH7.2) containing 0.2 mg/mL lysozyme, protease inhibitor cocktail (Roche), chilled on ice, and sonicated (20 bursts, 10 s each at 70 W) with a Sonicator Q500 (Qsonica). The unbroken cells and debris were removed by centrifugation at 15,600×g for 5 min at 4° C. The supernatant was transferred to a 1.5 mL centrifuge tube, and the cell membranes were precipitated from the supernatant by centrifugation in a microcentrifuge at 15,600×g for 1 hour at 4° C. The supernatant was saved as cytoplasm fraction. To further separate inner and outer membrane proteins, the membrane pellets were thoroughly suspended in 0.1 ml of PBS buffer supplemented with 1% Sarkosyl by repeated pipetting. Following incubation for 30 minutes with intermittent mixing at room temperature, the suspension was centrifuged at 15,600×g for 1 hour at 4° C. […]
Different cellular components (30 μL) from P. aeruginosa were mixed with GM-CSF (20 ng) and incubated at room temperature for 2 hours. […] The separated samples were then subjected to Western blotting and detected by Human GM-CSF Monoclonal Antibody as described in whole cell binding assay.

[3] = 2.43 pg/ml GM-CSF in the presence of 50 μg/mL ciprofloxacin
[4] = 2.43 pg/ml GM-CSF in the presence of 50 μg/mL tetracycline
[5] = 2.43 pg/ml GM-CSF in the presence of 50 μg/mL tobramycin
[6] = 2.43 pg/ml GM-CSF in the presence of 200 μg/mL gentamicin

Substance: GM-CSF: granulocyte macrophage-colony stimulating factor, a cytokine secreted by macrophages; recombinant human GM-CSF (R&D systems) in binding tests
- % change in avg. CFU/mL by GM-CSF (compared to GM-CSF free control) With 50 μg/mL Cip (P. aeruginosa PDO300; persisters): −22.2%
- % change in avg. CFU/mL by GM-CSF (compared to GM-CSF free control) With 50 μg/mL Tet (P. aeruginosa PDO300; persisters): −46.2%
- % change in avg. CFU/mL by GM-CSF (compared to GM-CSF free control) With 50 μg/mL Tob (P. aeruginosa PDO300; persisters): −80.0%
- % change in avg. CFU/mL by GM-CSF (compared to GM-CSF free control) With 200 μg/mL Gen (P. aeruginosa PDO300; persisters): −50.0%
- % change in avg. CFU/ml after adding factor + CIP (P. aeruginosa PDO300; persisters): −27.78%
- % change in avg. CFU/ml after adding factor + TET (P. aeruginosa PDO300; persisters): −32.69%
- % change in avg. CFU/ml after adding factor + TOB (P. aeruginosa PDO300; persisters): −75.86%
- % change in avg. CFU/ml after adding factor + GEN (P. aeruginosa PDO300; persisters): −50.94%
- average CFU/ml of persisters reduced by (P. aeruginosa PDO300; [3]): 27.78%
- average CFU/ml of total viable cells reduced by (P. aeruginosa PDO300; [3]): 25.00%
- average CFU/ml of persisters reduced by (P. aeruginosa PDO300; [4]): 32.69%
- average CFU/ml of total viable cells reduced by (P. aeruginosa PDO300; [4]): 12.50%
- average CFU/ml of persisters reduced by (P. aeruginosa PDO300; [5]): 75.86%
- average CFU/ml of total viable cells reduced by (P. aeruginosa PDO300; [5]): 8.33%
- average CFU/ml of persisters reduced by (P. aeruginosa PDO300; [6]): 50.94%
- average CFU/ml of total viable cells reduced by (P. aeruginosa PDO300; [6]): 20.00%
- % change in avg. CFU/mL by GM-CSF (compared to GM-CSF free control) With 50 μg/mL Cip (P. aeruginosa PDO300; total viable cells): −25.0%
- % change in avg. CFU/mL by GM-CSF (compared to GM-CSF free control) With 50 μg/mL Tet (P. aeruginosa PDO300; total viable cells): −12.5%
- % change in avg. CFU/mL by GM-CSF (compared to GM-CSF free control) With 50 μg/mL Tob (P. aeruginosa PDO300; total viable cells): −8.3%
- % change in avg. CFU/mL by GM-CSF (compared to GM-CSF free control) With 200 μg/mL Gen (P. aeruginosa PDO300; total viable cells): −20.0%
- % change in avg. CFU/ml after adding factor + CIP (P. aeruginosa PDO300; total viable cells): −25.00%
- % change in avg. CFU/ml after adding factor + TET (P. aeruginosa PDO300; total viable cells): −12.50%
- % change in avg. CFU/ml after adding factor + TOB (P. aeruginosa PDO300; total viable cells): −8.33%
- % change in avg. CFU/ml after adding factor + GEN (P. aeruginosa PDO300; total viable cells): −20.00%
- binding to whole cells [1]: does bind
- binding to cellular components [2]: preferentially binds to membrane fractions
